Measured values from US6472348B1, “Pyridone derivatives and herbicides” (Kumiai Chemical Industry Co., Ltd., priority 1996, dated 2002).

How the values were obtained:
[1] = system: pale smartweed (Po); experiment: Test Example 3: herbicidal effects by upland field foliage treatment; type: in vivo; parameters: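 grade of growth control; 5 = at least 90%; 4 = 70 to 90%; 3 = 50 to 70%; 2 = 30 to 50%; 1 = 10 to 30%; 0 = under 10%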
How it was run: (§1)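 Scoring used a standard effect scale on the 14th day post-treatment, with plants held in a greenhouse throughout. Foliar application was made to weeds raised from seed in sand-filled pots for 2 weeks.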

[2] = system: Diaitaria ciliaris (Di); experiment: as above; type: in vivo; parameters: scale not given here
How it was run: as §1

[3] = system: barnyardgrass (Ec); experiment: as above; type: in vivo; parameters: scale not given here
How it was run: as §1

[4] = system: rice flatsedge (Ci); experiment: as above; type: in vivo; parameters: scale not given here
How it was run: as §1

[5] = system: common lambsquarters (Ch); experiment: as above; type: in vivo; parameters: scale not given here
How it was run: as §1

[6] = system: wheat (Tr); experiment: Test Example 9: crop plant selectivity by upland field foliage treatment (wheat), phytotoxicity; settings: dose 1.6 g ai/10a, 14th day after treatment;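 also: grade of crop injury; 5 = at least 90%; 4 = 70 to 90%; 3 = 50 to 70%; 2 = 30 to 50%; 1 = 10 to 30%; 0 = under 10%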
How it was run: (§2)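 Wheat and broadleaf weeds were sown together in sand-filled pots and grown for 2 weeks in a greenhouse before foliar treatment. Herbicidal effect on weeds and phytotoxicity to wheat were scored visually against set grading standards on day 14 after treatment, with plants kept in the greenhouse.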

[7] = system: corn (Ze); experiment: Test Example 7: crop plant selectivity by upland field soil treatment (corn), phytotoxicity; type: in vivo; parameters: scale not given here; settings: 21st day after application
How it was run: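 Greenhouse pot test: scores for herbicidal effect and corn phytotoxicity were given 21 days after soil treatment, against set rating standards. Crop and weed species (foxtail, smartweed, amaranth, lambsquarters, China jute) were sown together in sand and covered with soil beforehand.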

[8] = system: common lambsquarters (Ch); experiment: Test Example 5: crop plant selectivity by upland field soil treatment (wheat), herbicidal effects; type: in vivo; parameters: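 grade of growth control; 5 = at least 90%; 4 = 70 to 90%; 3 = 50 to 70%; 2 = 30 to 50%; 1 = 10 to 30%; 0 = under 10%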; settings: 21st day after application
How it was run: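 Upland soil treatment test: crop and weed species sown in sand-filled pots and covered with soil before compound application. Visual scoring of weed control and wheat injury 21 days post-application, plants kept in a greenhouse, using a standard rating scale.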

[9] = system: pale smartweed (Po); experiment: Test Example 9: crop plant selectivity by upland field foliage treatment (wheat), herbicidal effects; type: in vivo; parameters: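 grade of growth control; 5 = at least 90%; 4 = 70 to 90%; 3 = 50 to 70%; 2 = 30 to 50%; 1 = 10 to 30%; 0 = under 10%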; settings: dose 1.6 g ai/10a, 14th day after treatment
How it was run: as §2

[10] = system: China jute (Ab); experiment: as above; type: in vivo; parameters: scale not given here; settings: dose 1.6 g ai/10a, 14th day after treatment
How it was run: as §2

[11] = system: slender amaranth (Am); experiment: as above; type: in vivo; parameters: scale not given here; settings: dose 1.6 g ai/10a, 14th day after treatment
How it was run: as §2

[12] = system: common lambsquarters (Ch); experiment: as above; type: in vivo; parameters: scale not given here; settings: dose 1.6 g ai/10a, 14th day after treatment
How it was run: as §2

[13] = 100 g of the active ingredient per 10 ares, evaluated on the 14th day after treatment
[14] = 100 g active ingredient per 10 ares, evaluated 14th day after treatment

Row | SMILES | Herbicidal effects Po [1, 13] | Herbicidal effects Di [2, 13] | Herbicidal effects Ec [3, 13] | Herbicidal effects Ci [4, 13] | Herbicidal effects Ch [5, 13] | Phytotoxicity Tr [6] | Phytotoxicity Ze ([7]; dose 1.6 g ai/10a) | Phytotoxicity Ze ([7]; dose 6.3 g ai/10a) | Herbicidal effects Ch ([8]; dose 1.6 g ai/10a) | Herbicidal effects Ch ([8]; dose 6.3 g ai/10a) | Herbicidal effects Po [9] | Herbicidal effects Ab [10] | Herbicidal effects Am [11] | Herbicidal effects Ch [12] | Herbicidal effects Po [1, 14] | Herbicidal effects Di [2, 14] | Herbicidal effects Ec [3, 14] | Herbicidal effects Ci [4, 14] | Herbicidal effects Ch [5, 14]
1 | CCOC(=O)c1cc(-c2ccc(C(F)(F)F)n(C)c2=O)c(F)cc1Cl [1-65] | 5 | 5 | 5 | 5 | 5 | 2 | 1 | 2 | 5 | 5 | 5 | 5 | 5 | 5 |  |  |  |  | 
2 | COCSc1cc(-c2ccc(C(F)(F)F)n(C)c2=O)c(F)cc1Cl [1-91] | 5 | 5 | 5 | 5 | 5 | 2 | 1 | 2 | 5 |  | 5 | 5 | 5 | 5 |  |  |  |  | 
3 | Cn1c(C(F)(F)F)ccc(-c2cc(OCC3CC3)c(Cl)cc2F)c1=O [1-160] | 5 | 5 | 5 | 5 | 5 | 2 |  | 1 |  | 5 | 5 | 5 | 5 | 5 |  |  |  |  | 
4 | Cn1c(C(F)(F)F)ccc(-c2cc(OCCCl)c(Cl)cc2F)c1=O [1-171] | 5 | 5 | 5 | 5 | 5 | 2 |  | 0 |  | 5 | 5 | 5 | 5 | 5 |  |  |  |  | 
5 | C#CCOc1cc(-c2ccc(C(F)(F)F)n(N)c2=O)c(F)cc1Cl [1-178] | 5 | 5 | 5 | 5 | 5 | 2 | 2 |  | 5 |  | 5 | 5 | 5 | 5 |  |  |  |  | 
6 | COc1cc(-c2ccc(C(F)(F)F)n(N)c2=O)c(F)cc1Cl [1-179] | 5 | 5. | 5 | 5 | 5 | 2 |  | 1 |  | 5 | 5 | 5 | 5 | 5 |  |  |  |  | 
7 | C#CC(C)Oc1cc(Cl)cc(F)c1-c1ccc(C(F)(F)F)n(C)c1=O (stereo not drawn) [1′-5] |  |  |  |  |  | 1 | 1 | 2 | 5 | 5 | 5 | 5 | 5 | 5 | 5 | 5 | 5 | 5 | 5
8 | C=CC(C)Oc1cc(-c2ccc(C(F)(F)F)n(C)c2=O)c(F)cc1Cl (stereo not drawn) [Compound 1-182] | 5 | 5 | 5 | 5 | 5 | 1 |  | 1 |  | 5 | 5 | 5 | 5 | 5 |  |  |  |  | 
9 | CCON=Cc1cc(-c2ccc(C(F)(F)F)n(C)c2=O)c(F)cc1Cl [Compound 1-187] |  |  |  |  |  | 2 |  | 1 |  | 5 | 5 | 5 | 5 | 5 | 5 | 5 | 5 | 5 | 5
10 | CCOC(=O)CON=Cc1cc(-c2ccc(C(F)(F)F)n(C)c2=O)c(F)cc1Cl [Compound 1-191] |  |  |  |  |  | 2 |  | 1 |  | 5 | 5 | 5 | 5 | 5 | 5 | 5 | 5 | 5 | 5
11 | C=CC(O)c1cc(-c2ccc(C(F)(F)F)n(C)c2=O)c(F)cc1Cl (stereo not drawn) [Compound 1-197] |  |  |  |  |  | 2 |  | 1 |  | 5 | 5 | 5 | 5 | 5 | 5 | 5 | 5 | 5 | 5
12 | C#CC(O)c1cc(-c2ccc(C(F)(F)F)n(C)c2=O)c(F)cc1Cl (stereo not drawn) [Compound 1-202] |  |  |  |  |  | 2 | 1 |  | 5 |  | 5 | 5 | 5 | 5 | 5 | 5 | 5 | 5 | 5
13 | CSCOc1cc(-c2ccc(C(F)(F)F)n(C)c2=O)c(F)cc1Cl [Compound 1-208] |  |  |  |  |  | 2 |  | 1 |  | 5 | 5 | 5 | 5 | 5 | 5 | 5 | 5 | 5 | 5
14 | C#CCN1C(=O)COc2cc(Cl)c(-c3ccc(C(F)(F)F)n(C)c3=O)cc21 [Compound 2-25] |  |  |  |  |  | 2 | 1 |  | 5 | 5 | 5 | 5 | 5 | 5 | 5 | 5 | 5 | 5 | 5
15 | C=CCN1C(=O)COc2cc(Cl)c(-c3ccc(C(F)(F)F)n(C)c3=O)cc21 [Compound 2-26] |  |  |  |  |  | 2 |  | 1 |  | 5 | 5 | 5 | 5 | 5 | 5 | 5 | 5 | 5 | 5
16 | Cc1cc2c(-c3ccc(C(F)(F)F)n(C)c3=O)c(F)cc(Cl)c2o1 [Compound 4-1] |  |  |  |  |  | 2 | 0 | 1 | 5 | 5 | 5 | 5 | 5 | 5 | 5 | 5 | 5 | 5 | 5
17 | CCc1cc2c(-c3ccc(C(F)(F)F)n(C)c3=O)c(F)cc(Cl)c2o1 [Compound 4-2] |  |  |  |  |  | 2 | 1 | 1 | 5 |  | 5 | 5 | 5 | 5 | 5 | 5 | 5 | 5 | 5
18 | CCCc1cc2c(-c3ccc(C(F)(F)F)n(C)c3=O)c(F)cc(Cl)c2o1 [Compound 4-3] |  |  |  |  |  | 2 |  | 1 |  | 5 | 5 | 5 | 5 | 5 | 5 | 5 | 5 | 5 | 5
19 | CCc1cc2c(Cl)cc(F)c(-c3ccc(C(F)(F)F)n(C)c3=O)c2o1 [Compound 5-2] |  |  |  |  |  | 2 |  | 0 |  | 5 | 5 | 5 | 5 | 5 | 5 | 5 | 5 | 5 | 5
